Data from patent US20160368943A1, “SUBSTITUTED PURINE COMPOUNDS” (EPIZYME, INC., priority 2013, published 2016).
Where “and” joins values, the source holds several entries; their conditions need not be identical. Equal entries are not always repeated. Where two headings read alike, the source gives them in different places.

Legend:
Plasma stability, rat = format: in vitro ADME; details: Sprague Dawley, pooled plasma, 37° C., read-out: Half-life in ex vivo blood plasma
Description: Samples were quenched in methanol and analyzed by LC-MS/MS analysis.

[1] = Pharmacokinetic study in rat; format: in vivo, Sprague-Dawley rat
Protocol: In the IV bolus study, 1 mg/kg doses prepared in 0.4% HPBCD in saline were administered via foot dorsal vein injection. At each timepoint, 150 μL of blood was collected via tail vein into EDTA-K2 tubes. The blood samples were maintained in wet ice initially and centrifuged to obtain plasma (2000 g, 4° C., 5 minutes) within 15 minutes post sampling. In the PO study, doses prepared in 10% Ethanol:5% Solutol HS15:85% (5% of dextrose in water) were administered by oral gavage. Samples were collected as described above. In the IV infusion study, doses were prepared in 10% PEG400 in 0.9% saline and administered into the femoral vein, at a dose of 4.7 mg/kg/day for 7 days. 500 μL of blood was collected by jugular venipuncture at timepoints over 7 days and placed on crushed wet ice until centrifugation, which was carried out as soon as practical. The samples were centrifuged for 10 minutes at 4° C. at 2700 rpm. The resultant plasma was separated and frozen immediately over dry ice for LC-MS/MS analysis. […] Typically, samples were injected onto an LC-MS/MS system using a Waters BEH Phenyl column. The aqueous mobile phase was water with 0.1% NH4OH (A), and the organic mobile phase was acetonitrile with 0.1% NH4OH (B). The gradient was as follows: 37% B for the first 0.2 min, increased to 44% B from 0.2 to 0.6 min, maintained at 44% B for 0.5 min, and decreased to 37% B within 0.05 min. The injection volume was 2 uL, and the total run time was 1.5 min with a flow rate of 0.6 mL/min. […] The ionization was conducted in the positive ion mode using the MRM transition [M+H]+m/z 563.5 parent ion to m/z 326.3 daughter ion, incorporating a turbo-ionspray interface. Eight to ten calibration standards were prepared in blank plasma of the relevant species providing a typical standard curve concentration range of 5-500 ng/mL. Pharmacokinetic parameters were calculated by noncompartmental methods using WinNonlin (version 5.3; Pharsight, St. Louis, Mo.). Parameters are presented as mean±S.D.

[2] = Plasma protein binding by equilibrium dialysis, mouse; format: in vitro ADME, CD-1 mouse; details: male, CD-1, pH 7.4, read-out: Plasma free fraction
Protocol: Plasma protein binding was assessed by equilibrium dialysis, utilizing the HT-dialysis cell format with a cellulose semi permeable membrane (molecular weight cut off of 5000 Da). Plasma was warmed to 37° C. and adjusted to pH 7.4 before use. Male Sprague-Dawley rat, male Beagle dog, male CD-1 mouse and mixed sex human plasma was used for the studies. A 5 μM test compound solution was prepared in isotonic phosphate buffer and rat, dog, mouse and human plasma (final DMSO concentration of 0.5%). The plasma-containing solution was introduced to one side of the membrane, and the plasma-free on the other. Incubations were performed for 2-16 hours in duplicate in order to allow the compound to reach equilibrium. Haloperidol was included as the control compound for each species. At the end of the equilibration time the cells were emptied. Following protein precipitation, the samples were centrifuged and analyzed by LC-MS/MS. The samples from the protein containing compartment were quantified using calibration standards prepared in plasma and the protein free compartments were quantified using calibration standards prepared in dialysis buffer.

[3] = Prediction of human pharmacokinetics by interspecies scaling
Description: PK endpoints of CL and VDss in mouse, rat and dog were used to scale to the corresponding parameters in human using a variety of allometric and interspecies scaling approaches as previously reported (Boxenbaum, Journal of Pharmacokinetics and Biopharmaceutics 10(2): 201-227, 1982; Jones et al., Journal of Pharmaceutical Sciences 100(10): 4074-4089, 2011; Lombardo et al., J Clin Pharmacol 53(2): 178-191, 2013a; Lombardo et al., J Clin Pharmacol 53(2): 167-177, 2013b; Mahmood & Balian, Xenobiotica 26(9): 887-895, 1996; Ring et al., Journal of Pharmaceutical Sciences 100(10): 4090-4110, 2011; Tang & Mayersohn, Journal of Pharmaceutical Sciences 95(8): 1783-1799, 2006; Tang & Mayersohn, Drug Metabolism and Disposition 33(9): 1297-1303, 2005; Vuppugalla et al., Journal of Pharmaceutical Sciences 100(10): 4111-4126, 2011). The likely predictive accuracy of each method was assessed based on visual inspection of the data fit, as well as values such as the R^2 and the allometric exponent, where appropriate.

[4] = Liver microsome stability, dog; format: in vitro ADME
Protocol: The final incubation volume was 50 μL. Control incubations were included for each species where 0.1 M phosphate buffer pH 7.4 was added instead of NADPH (minus NADPH). Two control compounds were included for each species. […] The control (minus NADPH) was incubated for 45 minutes only. The reactions were stopped by transferring 25 μL of incubate to 50 μL methanol at the appropriate time points. The incubation plates were centrifuged at 2,500 rpm for 20 minutes at 4° C. to aid protein precipitation. Experimental half-lives were transformed to the corresponding intrinsic clearance values and subsequently scaled to predicted in vivo clearance values, using the well-stirred model as previously described (Houston, Biochemical Pharmacology 47(9): 1469-1479, 1994; Obach, Drug Metabolism and Disposition 27(11): 1350-1359, 1999), with appropriate species-specific scaling factors (Barter et al., Current Drug Metabolism 8(1): 33-45, 2007).

[5] = male, Sprague-Dawley, plasma, SD rat, IV bolus, 1 mg/kg
[6] = male, Sprague-Dawley, plasma, SD rat, IV infusion, 4.7 mg/kg/day for 7 days
[7] = male, Sprague-Dawley, plasma, SD rat, PO, 10 mg/kg

For `CC(C)N(C[C@H]1O[C@@H](n2cnc3c(N)ncnc32)[C@H](O)[C@@H]1O)[C@H]1C[C@@H](CCc2nc3cc(C(C)(C)C)ccc3[nH]2)C1` [Compound A, (2R,3R,4S,5R)-2-(6-amino-9H-purin-9-yl)-5-((((1r,3S)-3-(2-(5-(tert-butyl)-1H-benzo[d]imidazol-2-yl)ethyl)cyclobutyl)(isopropyl)amino)methyl)tetrahydrofuran-3,4-diol], the half-life at 1 μM (Plasma stability, rat) was over 2 h, the CL ([1]; SD rat, IV bolus, 1 mg/kg) was 67.8 ± 5.3 mL/min/kg and the t1/2 ([1]; SD rat, IV bolus, 1 mg/kg) was 3.73 ± 1.03 h. The “time to steady state” value ([1]; SD rat, IV infusion, 4.7 mg/kg/day) was at most 1 h, the F ([1]; SD rat, PO, 10 mg/kg) was under 1% and the AUC(0-inf) [1, 5] was 0.44 ± 0.03 µM·h. It also gave an AUC(0-t) [1, 5] of 0.43 ± 0.03 µM·h, a Cmax [1, 5] of 2040 ± 230 nM and an MRT [1, 5] of 0.41 ± 0.1 h. For the same compound, the Tmax [1, 5] was 0.05 h, the AUC(0-inf) [1, 6] was 12.5 µM·h and the AUC(0-t) [1, 6] was 12.5 µM·h. The Cmax [1, 6] was 130 nM, the Tmax [1, 6] was 4 h and the concentration at 7 days ([1]; male, Sprague-Dawley, plasma, SD rat, IV infusion, 4.7 mg/kg/day for 7 days, read-out: average steady state concentration) was 78 nM. For the same compound, the Cmax [1, 7] was 0.7 nM, the Tmax [1, 7] was 0.25 h and the half-life ([1]; male, Sprague-Dawley, rat, plasma, iv, 1 mg/kg, SD rat, IV bolus) was 3.7 h. It also gave a clearance ([1]; male, Sprague-Dawley, rat, plasma, iv, 1 mg/kg, SD rat, IV bolus, 1 mg/kg, read-out: CL) of 68 mL/min/kg, a Vd ([1]; male, Sprague-Dawley, rat, plasma, iv, 1 mg/kg, SD rat, IV bolus, 1 mg/kg, read-out: VDss) of 1.66 L/kg and a Vd ([1]; male, Sprague-Dawley, rat, plasma, iv, 1 mg/kg, rat, read-out: Unbound VDss) of 6.1 L/kg. The clearance ([1]; male, Sprague-Dawley, rat, plasma, iv, 4.7 mg/kg/day, SD rat, IV infusion, 4.7 mg/kg/day, Css 78 nM, read-out: CL estimate from IV infusion (dose rate divided by Css)) was 74 mL/min/kg, the “oral bioavailability (in words)” value ([1]; rat, PO) was “low and negligible” and the fraction unbound at 5 μM [2] was 0.138. For the same compound, the “Predicted human VDss” value ([3]; Consensus prediction) was 2.8 L/kg and 2.76 L/kg, the “Predicted human CL” value ([3]; Consensus prediction (excludes simple allometry)) was 6.5 mL/min/kg and the “Predicted human CL” value ([3]; MLR rat-dog) was 11 mL/min/kg and 10.7 mL/min/kg. For the same compound, the “Predicted human VDss” value ([3]; Oie-Tozer equation, rat and dog data) was 0.97 L/kg, the “Predicted human CL” value ([3]; Simple allometry) was 13.3 mL/min/kg and the “Predicted human VDss” value ([3]; Simple allometry) was 2.71 L/kg. For the same compound, the “allometric exponent for CL” value ([3]; Simple allometry) was 0.76, the “Predicted human VDss” value ([3]; Simple allometry - unbound) was 1.16 L/kg and the “Predicted human VDss” value ([3]; Wajima equation, rat and dog data) was 6.2 L/kg. The “human CL estimates” value ([3]; across multiple, diverse scaling approaches) was 6 to 8 mL/min/kg, the “Predicted human VDss” value ([3]; simple allometry (total and unbound) and Oie-Tozer equation) was 1 to 3 L/kg and the “Predicted human VDss” value ([3]; simple allometry using total and unbound terms) was 1.2 to 2.7 L/kg. For the same compound, the microsomal CLint at 3 μM ([4]; liver microsomes, pH 7.4, NADPH, 3 μM) was 39 µL/min/mg and the “Scaled Hepatic CL from liver microsomes” value ([4]; well-stirred model) was 20 mL/min/kg.
